Data reported in US11696913B2, “Prolonged ectoparasite-controlling agent for animal” (MITSUI CHEMICALS AGRO, INC., priority 2017, dated 2023).

Key:
[1] = system: Ctenocephalides felis; experiment: In vitro contact test with fleas; conditions: read-out: insecticidal activity; for pest or weed control at 0.2 µg/cm2, 0.2 µg/cm2: dose 0.2 μg/cm^2, dead or moribund fleas after 48 h; for pest or weed control at 1 µg/cm2, 1 µg/cm2: dose 1 μg/cm^2, dead or moribund fleas after 48 h; for pest or weed control at 0.04 µg/cm2, 0.04 µg/cm2: dose 0.04 μg/cm^2, dead or moribund fleas after 48 h
Description: In Vitro Contact Tests with Fleas
In vitro contact tests with fleas were conducted with adult male and female cat fleas (Ctenocephalides felis).
(§1) To coat the test tubes, the test substance was dissolved and diluted in acetone p.a. to the desired concentration. The solution was then homogeneously applied to the inner wall and base of a glass tube by turning and rocking on an orbital shaker until complete evaporation of the solvent. For example, with a 900 ppm solution of test substance, an area-based dose of 5 μg/cm^2 was achieved.
Upon complete evaporation of the solvent, 5-10 adult cat fleas (Ctenocephalides felis) were added to each coated tube, which was then sealed with a perforated plastic lid and incubated in a horizontal position at room temperature and ambient humidity. After 48 h, insecticidal activity against fleas was determined. For this, fleas were collected to the base of the tube by knocking the tube, and the tube was allowed to stand upright. Fleas which remained motionless at the base or moved in an uncoordinated manner were considered dead or moribund, respectively.
A substance was judged to have good insecticidal activity against Ctenocephalides felis when at least 80% of the fleas were found dead or moribund at a dose of the substance of μg/cm^2. 100% insecticidal activity means that all the fleas were found dead or moribund. 0% insecticidal activity means that no fleas were found dead or moribund.

[2] = system: Amblyomma americanum; experiment: In vitro contact test with hard ticks (Amblyomma americanum nymphs); conditions: read-out: acaricidal activity; for pest or weed control at 0.2 µg/cm2, 0.2 µg/cm2: dose 0.2 μg/cm^2, 48 h; for pest or weed control at 1 µg/cm2, 1 µg/cm2: dose 1 μg/cm^2, 48 h
Description: (§2) In Vitro Contact Tests with Adult Hard Ticks
(§3) In vitro contact tests with ticks were conducted with adult males and females of Rhipicephalus sanguineus, Ixodes ricinus, or Dermacentor variabilis, or nymphs of Amblyomma americanum.
as §1, with “For the coating of” for “To coat”, “vials,” for “tubes,”, “vial” for “tube”
(§4) After the solvent was completely evaporated, 5-10 adult ticks were put in each coated test vial, which was then sealed with a perforated plastic lid and incubated in a horizontal position in the dark at room temperature and ambient humidity (Rhipicephalus sanguineus) or in a climate-controlled cabinet (Ixodes ricinus, Dermacentor variabilis, Amblyomma americanum [21° C., 85% rel. hum.]). Acaricidal activity against the respective tick species was determined after 48 h. For this, ticks were collected to the base of the test vial by gentle knocking, and test vials were then incubated on a hotplate at 45-50° C. for no longer than 5 min. Ticks which remained motionless on the base of the test vial or moved uncoordinated without deliberately climbing up to avoid the heat were considered dead or moribund, respectively.
(§5) A substance was judged to have good acaricidal activity against the respective tick species when at least 80% of ticks were found dead or moribund at a dose of the substance of g/cm^2. An acaricidal activity of 100% means all ticks were dead or moribund. An acaricidal activity of 0% means none of the ticks was found dead or moribund.

[3] = system: Ctenocephalides felis; experiment: Ctenocephalides felis in-vitro feeding test with fleas (CTECFE oral); conditions: 48 hours, read-out: insecticidal feeding activity; for pest or weed control at 0.032 ppm: dose 0.032 ppm in citrated cattle blood; for pest or weed control at 0.16 ppm: dose 0.16 ppm in citrated cattle blood; for pest or weed control at 0.8 ppm: dose 0.8 ppm in citrated cattle blood; for pest or weed control at 4 ppm: dose 4 ppm in citrated cattle blood; for pest or weed control at 0.0064 ppm: dose 0.0064 ppm in citrated cattle blood
Description: Ctenocephalides felis In-Vitro Feeding Test with Fleas (CTECFE Oral)
To prepare a test blood mixture for feeding fleas, the test substance was dissolved in dimethyl sulphoxide and diluted with citrated cattle blood to the desired concentration.
To assemble the test set-up, about 20 unfed adult male and female cat fleas
(Ctenocephalides felis) were placed in a chamber which was closed at the top and bottom with gauze. A metal cylinder was sealed at one end with parafilm membrane, placed with the sealed base onto the chamber, and filled with the test blood mixture, which could be imbibed by the fleas through the parafilm membrane. The assembled test set-up was maintained at about 37° C. After 48 hours, the insecticidal feeding activity against fleas was determined. 100% means that all of the fleas were killed; 0% means that none of the fleas was killed.

[4] = system: Ixodes ricinus; experiment: In vitro contact test with adult hard ticks (Ixodes ricinus); conditions: read-out: acaricidal activity; for pest or weed control at 0.2 µg/cm2, 0.2 µg/cm2: dose 0.2 μg/cm^2, 48 h; for pest or weed control at 1 µg/cm2, 1 µg/cm2: dose 1 μg/cm^2, 48 h; for pest or weed control at 5 µg/cm2, 5 µg/cm2: dose 5 μg/cm^2, 48 h
Description: as §2, §3
as §1, with “For the coating of” for “To coat”, “vials,” for “tubes,”, “vial” for “tube”
as §4, §5

[5] = system: Rhipicephalus (Boophilus) microplus; experiment: In vitro injection test with Rhipicephalus (Boophilus) microplus (BOOPMI Inj); conditions: 168 h, laid fertile eggs after 7 days, read-out: acaricidal activity; for pest or weed control at 32 ng: dose 0.032 μg/animal injected; for pest or weed control at 0.00016 mg: dose 0.16 μg/animal injected; for pest or weed control at 0.0008 mg: dose 0.8 μg/animal injected; for pest or weed control at 6.4 ng: dose 0.0064 μg/animal injected
Description: In Vitro Injection Test with Rhipicephalus (Boophilus) Microplus (BOOPMI Inj)
To produce an appropriate mixture for injection, the test substance was dissolved and diluted in dimethyl sulphoxide to the desired concentration. 1 μl of the test mixture was injected into the abdomen of each of 5 engorged adult female cattle ticks (Rhipicephalus (Boophilus) microplus). The ticks were transferred into petri dishes and maintained in a climate-controlled room [28° C., 85% rel. hum.].
Acaricidal activity against cattle ticks was assessed after 7 days by assessment of laid fertile eggs. […] An acaricidal activity of 100% means that none of the ticks laid eggs or laid eggs were infertile; 0% means that the ticks laid eggs, and all the eggs were fertile.

[6] = system: Rhipicephalus sanguineus; experiment: In vitro contact test with adult hard ticks (Rhipicephalus sanguineus); conditions: read-out: acaricidal activity; for pest or weed control at 0.04 µg/cm2, 0.04 µg/cm2: dose 0.04 μg/cm^2, 48 h; for pest or weed control at 0.2 µg/cm2, 0.2 µg/cm2: dose 0.2 μg/cm^2, 48 h; for pest or weed control at 1 µg/cm2, 1 µg/cm2: dose 1 μg/cm^2, 48 h
Description: as §2, §3
as §1, with “For the coating of” for “To coat”, “vials,” for “tubes,”, “vial” for “tube”
as §4, §5

[7] = system: Dermacentor variabilis; experiment: In vitro contact test with adult hard ticks (Dermacentor variabilis); conditions: read-out: acaricidal activity; for pest or weed control at 0.2 µg/cm2, 0.2 µg/cm2: dose 0.2 μg/cm^2, 48 h; for pest or weed control at 1 µg/cm2, 1 µg/cm2: dose 1 μg/cm^2, 48 h
Description: as §2, §3
as §1, with “For the coating of” for “To coat”, “vials,” for “tubes,”, “vial” for “tube”
as §4, §5

Structure (SMILES) | pest or weed control at 0.2 µg/cm2, 0.2 µg/cm2 [1] | pest or weed control at 1 µg/cm2, 1 µg/cm2 [1] | pest or weed control at 0.2 µg/cm2, 0.2 µg/cm2 [2] | pest or weed control at 1 µg/cm2, 1 µg/cm2 [2] | pest or weed control at 0.032 ppm [3] | pest or weed control at 0.16 ppm [3] | pest or weed control at 0.8 ppm [3] | pest or weed control at 4 ppm [3] | pest or weed control at 0.2 µg/cm2, 0.2 µg/cm2 [4] | pest or weed control at 1 µg/cm2, 1 µg/cm2 [4] | pest or weed control at 5 µg/cm2, 5 µg/cm2 [4] | pest or weed control at 32 ng [5] | pest or weed control at 0.00016 mg [5] | pest or weed control at 0.0008 mg [5] | pest or weed control at 0.04 µg/cm2, 0.04 µg/cm2 [6] | pest or weed control at 0.2 µg/cm2, 0.2 µg/cm2 [6] | pest or weed control at 1 µg/cm2, 1 µg/cm2 [6] | pest or weed control at 0.2 µg/cm2, 0.2 µg/cm2 [7] | pest or weed control at 1 µg/cm2, 1 µg/cm2 [7] | pest or weed control at 0.04 µg/cm2, 0.04 µg/cm2 [1] | further results
N#Cc1ccc(C(=O)Nc2cccc(C(=O)Nc3c(Br)cc(C(F)(C(F)(F)F)C(F)(F)F)cc3OC(F)(F)F)c2F)cc1 [Compound 13] | 95% | 95% | 90% | 90% | 95% | 95% | 95% | 95% | 90% | 90% | 90% | 100% | 100% | 100% | 90% | 90% | 90% | 90% | 90% | – | –
N#Cc1ccc(C(=O)Nc2cccc(C(=O)Nc3c(Br)cc(C(F)(C(F)(F)F)C(F)(F)F)cc3C(F)(F)F)c2F)cc1 [Compound 16] | 95% | 95% | 90% | 90% | 95% | 95% | 95% | 95% | 90% | 90% | 90% | – | 100% | 100% | 90% | 90% | 90% | 90% | 90% | 95% | pest or weed control at 0.0064 ppm [3]: 95%
CN(C(=O)c1ccc(F)cc1)c1cccc(C(=O)Nc2c(Br)cc(C(F)(C(F)(F)F)C(F)(F)F)cc2C(F)(F)F)c1F [Compound 26] | 95% | 95% | 90% | 90% | – | – | 95% | 95% | – | 90% | 90% | 100% | 100% | 100% | – | – | 90% | 90% | 90% | 95% | –
N#Cc1ccc(C(=O)Nc2cccc(C(=O)Nc3c(I)cc(C(F)(C(F)(F)F)C(F)(F)C(F)(F)F)cc3C(F)(F)F)c2F)cc1 (stereo not shown) [Compound 34] | 95% | 95% | 90% | 90% | 95% | 95% | 95% | 95% | – | 90% | 90% | 100% | 100% | 100% | – | 90% | 90% | 90% | 90% | – | pest or weed control at 0.0064 ppm [3]: 95%; pest or weed control at 6.4 ng [5]: 100%; pest or weed control at 0.04 µg/cm2, 0.04 µg/cm2 ([7]; dose 0.04 μg/cm^2, 48 h): 90%
O=C(Nc1cccc(C(=O)Nc2c(I)cc(C(F)(C(F)(F)F)C(F)(F)C(F)(F)F)cc2C(F)(F)F)c1F)c1ccc(F)cc1 (stereo not shown) [Compound 35] | 95% | 95% | 90% | 90% | 95% | 95% | 95% | 95% | 90% | 90% | 90% | 100% | 100% | 100% | 90% | 90% | 90% | 90% | 90% | – | pest or weed control at 0.04 µg/cm2, 0.04 µg/cm2 ([2]; dose 0.04 μg/cm^2, 48 h): 90%; pest or weed control at 6.4 ng [5]: 100%
O=C(Nc1cccc(C(=O)Nc2c(Br)cc(C(F)(C(F)(F)F)C(F)(F)C(F)(F)F)cc2C(F)(F)F)c1F)c1ccc(F)cc1 (stereo not shown) [Compound 36] | 95% | 95% | 90% | 90% | – | 95% | 95% | 95% | 90% | 90% | 90% | 100% | 100% | 100% | 90% | 90% | 90% | 90% | 90% | 95% | pest or weed control at 0.0064 ppm [3]: 95%
